# Experimental data reported in patent US20240343755A1, “STABLE ISOQUINOLINE-CORTICOSTEROID CONJUGATES AND USES THEREOF” (priority 2021, published 2024).
# Where a name gives a salt, the structure may show the parent alone. Read-outs that look alike come from different tables or passages of the source.
# What was measured:
# [1] = molecular target: Rho-associated protein kinase 2 (ROCK2) (Homo sapiens, UniProt O75116); assay: In vitro ROCKi activity, ROCK2; assay type: biochemical
# Method: (§1) Activities of certain compounds and components of compounds described herein were assayed. […] Rho-associated protein kinase 2=ROCK2; Rho-associated protein kinase 1=ROCK1; Porcine Trabecular Meshwork cells=PTM; Human Trabecular Meshwork cells=HTM; Splenic Interleukin-23=SPNL IL23; and Tumor Necrosis Factor α=TNFα.
# [2] = molecular target: Rho-associated protein kinase 1 (ROCK1) (Homo sapiens, UniProt Q13464); assay: In vitro ROCKi activity, ROCK1; assay type: biochemical
# Sequence of Rho-associated protein kinase 1 (ROCK1) (Q13464 whole entry, species assumed): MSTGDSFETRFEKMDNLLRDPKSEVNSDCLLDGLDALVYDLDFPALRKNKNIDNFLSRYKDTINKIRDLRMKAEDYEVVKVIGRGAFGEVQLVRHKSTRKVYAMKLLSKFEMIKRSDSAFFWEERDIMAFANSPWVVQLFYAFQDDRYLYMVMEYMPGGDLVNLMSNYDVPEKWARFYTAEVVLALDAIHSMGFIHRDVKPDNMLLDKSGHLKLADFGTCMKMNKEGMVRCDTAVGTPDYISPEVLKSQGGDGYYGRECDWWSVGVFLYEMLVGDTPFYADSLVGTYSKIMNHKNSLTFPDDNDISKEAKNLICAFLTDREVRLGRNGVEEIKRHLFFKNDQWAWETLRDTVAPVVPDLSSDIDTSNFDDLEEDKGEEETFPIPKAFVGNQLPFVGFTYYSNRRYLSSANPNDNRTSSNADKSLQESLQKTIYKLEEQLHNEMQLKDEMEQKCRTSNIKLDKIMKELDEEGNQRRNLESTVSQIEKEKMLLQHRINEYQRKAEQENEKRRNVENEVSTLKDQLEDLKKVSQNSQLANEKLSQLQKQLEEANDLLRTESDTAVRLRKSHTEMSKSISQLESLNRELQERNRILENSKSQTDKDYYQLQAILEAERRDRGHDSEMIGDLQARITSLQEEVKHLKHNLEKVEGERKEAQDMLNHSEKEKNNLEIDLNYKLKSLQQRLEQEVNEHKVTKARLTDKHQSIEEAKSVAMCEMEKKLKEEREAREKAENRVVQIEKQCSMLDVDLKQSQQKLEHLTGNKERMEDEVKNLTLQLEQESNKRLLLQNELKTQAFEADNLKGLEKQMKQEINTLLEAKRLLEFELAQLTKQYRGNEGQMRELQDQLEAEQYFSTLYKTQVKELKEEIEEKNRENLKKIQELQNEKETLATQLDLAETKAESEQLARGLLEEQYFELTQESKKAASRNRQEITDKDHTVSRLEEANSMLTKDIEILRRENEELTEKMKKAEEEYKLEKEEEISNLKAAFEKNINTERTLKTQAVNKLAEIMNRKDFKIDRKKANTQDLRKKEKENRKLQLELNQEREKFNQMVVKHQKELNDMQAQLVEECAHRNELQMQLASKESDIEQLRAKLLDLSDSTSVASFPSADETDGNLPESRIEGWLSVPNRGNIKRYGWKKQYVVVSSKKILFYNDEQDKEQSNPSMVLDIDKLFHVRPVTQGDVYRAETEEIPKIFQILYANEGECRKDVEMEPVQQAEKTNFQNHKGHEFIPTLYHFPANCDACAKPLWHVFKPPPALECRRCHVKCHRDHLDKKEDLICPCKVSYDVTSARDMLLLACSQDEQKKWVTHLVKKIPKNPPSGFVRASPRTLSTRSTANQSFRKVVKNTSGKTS
# Method: as §1
# [3] = test system: Porcine Trabecular Meshwork cells; assay: Activity in Porcine Trabecular Meshwork cells (PTM); assay type: cell-based; settings: Sus scrofa
# Method: as §1
# [4] = test system: Human Trabecular Meshwork cells; assay: Activity in Human Trabecular Meshwork cells (HTM); assay type: cell-based
# Method: as §1
# [5] = test system: Splenic Interleukin-23; assay: In vitro steroid activity, splenic IL-23; assay type: cell-based; settings: read-out: IC50 (nM) SPLN IL23
# Method: (§2) Activities of certain compounds and components of compounds described herein were assayed. […] Rho-associated protein kinase 2=ROCK2; […] Porcine Trabecular Meshwork cells=PTM; Human Trabecular Meshwork cells=HTM; Splenic Interleukin-23=SPNL IL23; and Tumor Necrosis Factor α=TNFα.
# [6] = test system: Tumor Necrosis Factor α; assay: In vitro steroid activity, TNFα; assay type: cell-based; settings: read-out: IC50 (nM) TNFα
# Method: as §2
# [7] = test system: Allergic Eye Disease (AED) in wildtype C57Bl/6 mice; assay: Chronic/severe allergic eye disease (AED) model, Meibomian gland dysfunction; assay type: in vivo; settings: 0.1% E5 in SBEβCD, topical BID 5 uL
# Method: E5 was formulated in 5% sulfobutylether-β-cyclodextrin (SBEβCD), 10 mM PBS (0.1% NaCl) solution, pH 6 and filtered with a 0.2 μm PVDF filter. AED was induced in wildtype C57Bl/6 mice. Animals were immunized with one intraperitoneal (i.p) injection of 100 μg of OVA (InvivoGen) in 300 ng of pertussis toxin (List Biologicals) and 4 mg of aluminum hydroxide (Alum, Thermo Fisher Scientific Pierce) on Day 0. Two weeks later, mice were treated topically QD with 5 μL OVA (50 μg/μL) in sterile saline for 5 days. Mice were treated topically BID with 5 uL of vehicle (10% SBEβCD), Lotemax® (Bausch & Lomb; loteprednol etabonate ophthalmic gel 0.5%) or 0.1% E5 in SBEβCD (50:1). The first treatment was administered on Day 14 (2 weeks after initial immunization), 10 minutes prior to OVA instillation followed by a second dose >7 hrs thereafter.
# Assessment was carried out following euthanasia. All four lids were gently inverted under a dissection microscope to expose the posterior lid margin. The number of plugs on the upper and lower eyelids are analyzed and scored for severity as follows: 0 indicates no plug, 1+ indicates appearance of plug. 2+ is assigned to a plug that obstructs the entire MG (Meibomian gland) orifice, 3+ is a plug with a dome that rises above the plane of the eyelid margin, and a 4 is given to a plug that covers a larger surface than the MG orifice (usually with irregular circumference edges).
# Clinical parameters including eyelid edema, chemosis, conjunctival redness, and tearing were each scored on a scale of 0-3+. A score of 0 indicated no evidence of the respective parameter, 1+ is assigned if the response is mild, but distinctly greater than the naive controls; 2+ for a moderate change in the respective parameters that could be noted by slit-lamp microscopy, but not with naked eye; and 3+ if the response is severe enough that could be perceived with naked eye.
# Results are shown in FIG. 9, FIG. 10, and FIG. 11.
# [8] = test system: corneal epithelium debridement in C57/B1/6 mice; assay: In vivo PK/PD ocular surface corneal wound healing model; settings: 0.1% E5 in SBEβCD
# Method: E5 was formulated in 3.5% sulfobutylether-β-cyclodextrin (SBEβCD), 10 mM PBS, pH 6 and filtered with a 0.2 μm PVDF filter.
# Anesthetized animals (8-10 weeks old male C57/B1/6 mice) were placed under a dissecting microscope and eyes proposed. Corneas of OD eyes were demarcated by centrally, and softly, marking the perimeters of the debridement area with a 2 mm trephine. A 10 μL drop of PBS was placed on the eye and an Algerbrush with a 0.5 mm burr attachment was utilized to carefully remove the epithelium within the demarcated area of the cornea. Topical fluorescein (Sigma) was applied, and excess fluorescein flushed prior to capture of a baseline image of the wound (time=0). Topical treatments were administered at t=0 and t=6 hours post-injury by applying 5 µL to the surface of the debrided eye. Fluorescein-stained corneas were imaged again 24 h after injury. Percent re-epithelialization was assessed by analysis of imaged corneas with Image J (NIH, Bethesda, MD).
# 0.1% dexamethasone and 0.5% loteprednol were used as positive clinically relevant controls.
# [9] = test system: intraocular pressure in normotensive Dutch Belted rabbits; assay: Intraocular pressure study in normotensive Dutch Belted rabbits; assay type: in vivo; settings: single dose E5 0.1% or 0.25%
# Method: E5 was formulated in 3.5% or 6.5% sulfobutylether-β-cyclodextrin (SBEβCD), 10 mM PBS, pH 6 and filtered with a 0.2 μm PVDF filter. A single dose was administered and the intraocular pressure was measured, e.g., with a pneumatonometer, for 32 hours post-dose.
# Sequence of Rho-associated protein kinase 2 (ROCK2) (O75116 whole entry, species assumed): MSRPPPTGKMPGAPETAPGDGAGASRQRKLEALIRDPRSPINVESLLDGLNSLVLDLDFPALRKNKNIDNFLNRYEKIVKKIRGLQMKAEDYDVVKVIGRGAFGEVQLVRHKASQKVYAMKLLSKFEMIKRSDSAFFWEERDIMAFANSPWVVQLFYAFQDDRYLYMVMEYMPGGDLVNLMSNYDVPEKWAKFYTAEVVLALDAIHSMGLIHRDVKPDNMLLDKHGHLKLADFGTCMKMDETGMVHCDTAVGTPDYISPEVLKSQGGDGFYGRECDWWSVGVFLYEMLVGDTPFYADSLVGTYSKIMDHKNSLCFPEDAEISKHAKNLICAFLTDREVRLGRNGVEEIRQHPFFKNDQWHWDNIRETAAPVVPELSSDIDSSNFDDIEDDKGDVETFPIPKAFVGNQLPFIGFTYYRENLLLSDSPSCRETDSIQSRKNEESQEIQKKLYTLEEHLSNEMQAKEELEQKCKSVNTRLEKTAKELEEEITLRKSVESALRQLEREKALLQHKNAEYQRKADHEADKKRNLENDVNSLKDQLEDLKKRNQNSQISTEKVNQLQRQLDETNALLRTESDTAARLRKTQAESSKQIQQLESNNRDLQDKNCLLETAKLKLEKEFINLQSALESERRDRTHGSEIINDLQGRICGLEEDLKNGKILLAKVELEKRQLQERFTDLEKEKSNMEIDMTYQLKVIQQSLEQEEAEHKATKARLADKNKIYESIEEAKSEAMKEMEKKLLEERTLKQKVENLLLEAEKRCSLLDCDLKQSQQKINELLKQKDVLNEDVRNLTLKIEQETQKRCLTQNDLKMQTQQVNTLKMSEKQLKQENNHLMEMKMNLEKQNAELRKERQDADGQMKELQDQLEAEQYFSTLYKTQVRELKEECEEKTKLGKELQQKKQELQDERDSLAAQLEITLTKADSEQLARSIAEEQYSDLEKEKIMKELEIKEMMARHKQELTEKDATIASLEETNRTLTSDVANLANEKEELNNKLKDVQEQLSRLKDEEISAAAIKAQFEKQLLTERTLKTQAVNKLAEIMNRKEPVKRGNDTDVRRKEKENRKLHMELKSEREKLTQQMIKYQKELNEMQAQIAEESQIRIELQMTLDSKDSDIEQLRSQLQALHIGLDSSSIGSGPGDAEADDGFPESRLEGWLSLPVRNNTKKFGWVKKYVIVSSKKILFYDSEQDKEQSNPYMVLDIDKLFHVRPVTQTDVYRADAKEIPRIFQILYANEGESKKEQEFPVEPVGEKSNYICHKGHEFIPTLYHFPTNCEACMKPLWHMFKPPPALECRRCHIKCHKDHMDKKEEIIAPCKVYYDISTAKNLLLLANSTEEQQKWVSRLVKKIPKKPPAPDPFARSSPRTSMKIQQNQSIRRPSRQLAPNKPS
smiles,measurement,setting,value
"NC[C@@H](C(=O)Nc1ccc2cnccc2c1)c1ccc(CO)cc1 [A, reference compound]",IC50,[1],0.99 nM
same,IC50,[2],1.7 nM
same,IC50,[3],13 nM
same,IC50,[4],5 nM
"C[C@@H]1C[C@H]2[C@@H]3CCC4=CC(=O)C=C[C@]4(C)[C@@]3(F)[C@@H](O)C[C@]2(C)[C@@]1(O)C(=O)CO [B, Dexamethasone, reference compound]",IC50,[3],≥ 3000 nM
same,IC50,[4],≥ 3000 nM
same,IC50,[5]; Splenic Interleukin-23,4.6 nM
same,IC50,[6],47 nM
"CC1(C)O[C@@H]2C[C@H]3[C@@H]4CCC5=CC(=O)C=C[C@]5(C)[C@@]4(F)[C@@H](O)C[C@]3(C)[C@]2(C(=O)CO)O1 [C, Triamcinolone, reference compound]",IC50,[5]; Splenic Interleukin-23,0.93 nM
same,IC50,[6],0.51 nM
"CC1(C)O[C@@H]2C[C@H]3[C@@H]4CCC5=CC(=O)C=C[C@]5(C)[C@@]4(F)[C@@H](O)C[C@]3(C)[C@]2(C(=O)COC(=O)CCCC(=O)OCc2ccc([C@@H](CN)C(=O)Nc3ccc4cnccc4c3)cc2)O1 [Example E5, 4-((S)-3-amino-1-(isoquinolin-6-ylamino)-1-oxopropan-2-yl)benzyl (2-((6aS,6bR,7S,8aS,8bS,11aR,12aS,12bS)-6b-fluoro-7-hydroxy-6a,8a,10,10-tetramethyl-4-oxo-1,2,4,6a,6b,7,8,8a,11a,12,12a,12b-dodecahydro-8bH-naphtho[2′,1′:4,5]indeno[1,2-d][1,3]dioxol-8b-yl)-2-oxoethyl) glutarate dihydrochloride]",IC50,[1]; read-out: IC50 (nM) ROCK2,9 nM
same,IC50,[2],9 nM
same,IC50,[3],55 nM
same,IC50,[5],1 nM
same,IC50,[6],10 nM
same,Meibomian gland orifice plugging (number and severity of MG plugs),[7]; FIG. 10,effective in lowering both the number and severity of the MG plugs compared to both vehicle and loteprednol
same,neutrophil levels in Meibomian gland and conjunctiva,[7]; FIG. 11,reduced the number of neutrophils in the Meibomian gland and conjunctiva
same,"clinical scoring (eyelid edema, chemosis, conjunctival redness, tearing)","[7]; better than loteprednol gel, significance on day 4, FIG. 9",statistically significantly improved compared to vehicle
same,re-epithelialization (recovery of epithelium),"[8]; 24 h after epithelium debridement, FIG. 12",did not affect the recovery of epithelium
same,myeloperoxidase (MPO) levels (eye surface inflammation),"[8]; topical 5 µL at t=0 and t=6 hours post-injury, FIG. 13",significantly reduced the cornea inflammation in comparison to PBS (phosphate-buffered saline) vehicle and loteprednol groups
same,hyperemia,[9]; Dutch belted rabbits,no hyperemia observed
same,intraocular pressure (IOP),"[9]; measured for 32 hours post-dose, FIG. 14, FIG. 15",lowered IOP in a dose-dependent manner
C[C@@H]1C[C@H]2[C@@H]3CCC4=CC(=O)C=C[C@]4(C)[C@@]3(F)[C@@H](O)C[C@]2(C)[C@@]1(O)C(=O)COC(=O)CCCC(=O)OCc1ccc([C@@H](CN)C(=O)Nc2ccc3cnccc3c2)cc1 [Example E15],IC50,[1]; read-out: IC50 (nM) ROCK2,4 nM
same,IC50,[2],7 nM
same,IC50,[3],40 nM
same,IC50,[5]; Splenic Interleukin-23,12 nM
same,IC50,[6],147 nM
